Earlier results as cited in patent US20080031860A1 (N.V. NUTRICIA, priority 2003, published 2008).

Legend:
[1] = after 4 weeks of therapy
[2] = intake of 10-20 mg per day

Row | Molecule | appetite [1] | reported adverse effect [2]
1 | CCCCCc1cc(O)c2c(c1)OC(C)(C)[C@@H]1CCC(C)=C[C@@H]21 [dronabinol] | significantly stimulates appetite | 
2 | calcium D-pantothenate |  | diarrhea
